Assay results as given in patent US6906098B2, “Mixed steroidal 1,2,4,5-tetraoxane compounds and methods of making and using thereof” (priority 2002, dated 2005).
≈ marks a conversion by molar mass, not a printed value. Where “and” joins values, the source holds several entries; their conditions need not be identical. Equal values may be shown once. Read-outs that look alike come from different tables or passages of the source.

What was measured:
[1] = system: TK-10 renal cancer cell line; assay: NCI in vitro antiproliferative screen (SRB), TK-10; type: cell-based, human; conditions: TK-10, after 48 h; for GI50 / CC50: Homo sapiens; for CC50: read-out: LC50 (the source's name)
Procedure: (§1) In preliminary tests, four compounds (1B14a, 1C44, 1C45, and 1C46) were chosen by NIH-NCI for in vitro screening. See Drug discovery and development program, National Cancer Institute, Bethesda, (NCI), http://dtp.nci.nih.gov. All tetraoxanes were evaluated in the 3-cell line (lung—NCI-H460, breast—MCF7, CNS-SF-268) one dose primary anticancer assay: growth percentage after 48 hours, at 100 μM concentration of tested compound. Two compounds were eliminated at this step (1B14a and 1C46), while the acid 1C44 and primary amide 1C45 were evaluated against the full panel of 60 human tumor cell lines starting with 10^−4 M concentration of investigated compounds.
(§2) The activity of numerous compounds of the present invention against various cancer cell lines was submitted to the Developmental Therapeutics Program (DTP) at the National Cancer Institute (NCI) of the National Institutes of Health (NIH) for screening.
(§3) The DTP Human Tumor Cell Line Screen utilizes 60 different human tumor cell lines, representing leukemia, melanoma and cancers of the lung, colon, brain, ovary, breast, prostate, and kidney according to conventional methods known in the art. See e.g. Alley, M. C., et al. (1988) Cancer Research 48:589-601; Grever, M. R., et al. (1992) Seminars in Oncology 19(6):622-638; and Boyd, M. R., and Paull, K. D. (1995) Drug Development Research 34:91-109, which are herein incorporated by reference.
(§4) Generally, the human tumor cell lines of the cancer screening panel are grown in RPMI 1640 medium containing 5% fetal bovine serum and 2 mM L-glutamine. For a typical screening experiment, cells are inoculated into 96 well microtiter plates in 100 μl at plating densities ranging from 5,000 to 40,000 cells/well depending on the doubling time of individual cell lines. After cell inoculation, the microtiter plates are incubated at 37° C., 5% CO2, 95% air and 100% relative humidity for 24 hours prior to addition of the compounds to be tested.
(§5) After 24 hours, two plates of each cell line are fixed in situ with TCA, to represent a measurement of the cell population for each cell line at the time of drug addition (Tz). Experimental drugs are solubilized in dimethyl sulfoxide at 400-fold the desired final maximum test concentration and stored frozen prior to use. At the time of drug addition, an aliquot of frozen concentrate is thawed and diluted to twice the desired final maximum test concentration with complete medium containing 50 μg/ml gentamicin. Additional four, 10-fold or ½ log serial dilutions are made to provide a total of five drug concentrations plus control. Aliquots of 100 μl of these different drug dilutions are added to the appropriate microtiter wells already containing 100 μl of medium, resulting in the required final drug concentrations.
(§6) Following drug addition, the plates are incubated for an additional 48 hours at 37° C., 5% CO2, 95% air, and 100% relative humidity. For adherent cells, the assay is terminated by the addition of cold TCA. Cells are fixed in situ by the gentle addition of 50 μl of cold 50% (w/v) TCA (final concentration, 10% TCA) and incubated for 60 minutes at 4° C. The supernatant is discarded, and the plates are washed five times with tap water and air dried. Sulforhodamine B (SRB) solution (100 μl) at 0.4% (w/v) in 1% acetic acid is added to each well, and plates are incubated for 10 minutes at room temperature. […]

[2] = system: UO-31 renal cancer cell line; assay: NCI in vitro antiproliferative screen (SRB), UO-31; type: cell-based, human; conditions: UO-31, after 48 h; for GI50 / CC50: Homo sapiens; for CC50: read-out: LC50 (the source's name)
Procedure: as §1, §2, §3, §4, §5, §6

[3] = system: Plasmodium falciparum chloroquine-resistant strain W2; assay: microbe, parasite or virus in culture; type: cell-based; conditions: growth inhibition, chloroquine-resistant strain W2, 66 h incubation
[4] = system: Mycobacterium tuberculosis H37Rv (ATCC 27294); assay: Primary screen, Microplate Alamar Blue Assay (MABA), percent inhibition; type: cell-based; conditions: Mycobacterium tuberculosis, primary screening at 6.25 μg/ml
Method in brief: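 Single-concentration screen at 6.25 μg/ml (or molar equivalent of the heaviest congener in a series) against H37Rv grown in BACTEC 12B medium. Growth read by Microplate Alamar Blue Assay, reported as percent inhibition.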

SR leukemia cell line = assay: NCI in vitro antiproliferative screen (SRB), SR; type: cell-based, human; conditions: after 48 h; for GI50 / CC50: Homo sapiens; for CC50: read-out: LC50 (the source's name)
Procedure: as §1, §2, §3, §4, §5, §6

[5] = system: MALME-3M melanoma cancer cell line; assay: NCI in vitro antiproliferative screen (SRB), MALME-3M; type: cell-based, human; conditions: for GI50 / CC50: Homo sapiens; for CC50: read-out: LC50 (the source's name)
Procedure: as §1, §2, §3, §4, §5, §6

VERO cells [6] = assay: cells; conditions: Chlorocebus sabaeus, Table 5
[7] = system: IGROV1 ovarian cancer cell line; assay: NCI in vitro antiproliferative screen (SRB), IGROV1; type: cell-based, human; conditions: IGROV1, after 48 h
Procedure: as §1, §2, §3, §4, §5, §6

[8] = system: D6 and W2 P. falciparum clones; type: cell-based, Plasmodium falciparum; conditions: IC50 (W2)/IC50 (D6) ratio
[9] = system: KM-12 colon cancer cell line; assay: NCI in vitro antiproliferative screen (SRB), KM-12; type: cell-based, human; conditions: KM-12, after 48 h; for GI50 / CC50: Homo sapiens, KM12; for CC50: read-out: LC50 (the source's name)
Procedure: as §1, §2, §3, §4, §5, §6

VERO cells [10] = system: VERO cells
M. tuberculosis H37Rv = assay: Minimum inhibitory concentration (MIC) in the MABA; type: cell-based, Mycobacterium tuberculosis; conditions: Mycobacterium tuberculosis, H37RV, read-out: MIC
Method in brief: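 Run under the NIAID TAACF screening program against M. tuberculosis by fluorescence read-out. MIC taken as the lowest concentration giving 90% reduction in fluorescence relative to controls.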

[11] = system: Plasmodium falciparum chloroquine-susceptible strain D6; assay: In vitro antimalarial drug susceptibility assay (radiolabeled hypoxanthine incorporation), strain D6; type: cell-based; conditions: growth inhibition, chloroquine-susceptible strain D6, 66 h incubation
in vitro = conditions: African green monkey, Cytotoxcity (IC50)
[12] = Table 3, H37Rv, read-out: Inhibition (%)
[13] = Table 5, Alamar assay, read-out: % Inhib
[14] = MALME-3M, after 48 h, read-out: GI50
[15] = ratio of IC50 in VERO cells to MIC (M. tuberculosis H37Rv)
[16] = Table 5, Alamar assay, M. tuberculosis H37Rv

Structure (SMILES)	GI50 [1]	CC50 [1]	TGI [1]	GI50 [2]	CC50 [2]	TGI [2]	Strain W2 IC50 [3]	inhibition at 6.25 µg/mL [4, 12]	inhibition at 6.25 µg/mL [4, 13]	GI50 (SR leukemia cell line)	CC50 (SR leukemia cell line)	GI50 [5, 14]	CC50 ([5]; MALME-3M, after 48 h)	TGI ([5]; MALME-3M, after 48 h)	GI50 ([7]; Homo sapiens, IGROV-1)	TGI [7]	GI50 [9]	CC50 [9]	TGI [9]	MIC (M. tuberculosis H37Rv; Table 3, H37Rv)	further results
CC(=O)O[C@H]1CC2C(C3CC[C@H](C(C)CCC(=O)O)[C@]31C)[C@H](OC(C)=O)C[C@@H]1CC3(CC[C@]21C)OOC1(CCC(c2ccccc2)CC1)OO3 (single isomer, unassigned) [Compound 1C44, 7α,12α-Diacetoxy-5β-cholan-24-oic acid-3-spiro-6′-(1′,2′,4′,5′-tetraoxacyclohexane)-3′-spiro-1″-((4″R or S)-phenyl)cyclohexane]	1990 nM	27 µM	5.94 µM	1830 nM	6.73 µM	3.51 µM	6.09 ng/mL	94%	94%	1830 nM	100 µM	2270 nM	47 µM	9.14 µM	260 nM	0.82 µM	1960 nM	40.1 µM	5.36 µM	6.25 µg/mL (≈ 8.97 µM)	TGI (SR leukemia cell line): 5.92 µM; IC50 (VERO cells [6]): 1.07 µg/mL (≈ 1.54 µM); LC50 (concentration killing 50% of cells) ([7]; Homo sapiens, IGROV-1): 3.76 µM; Resistance Index [8]: 0.98; SI (selectivity index) (VERO cells [10]; [15]): 0.17; MIC (M. tuberculosis H37Rv; [16]): 6.25 µg/mL (≈ 8.97 µM); Strain D6 IC50 [11]: 6.19 ng/mL
CC(=O)O[C@H]1CC2C(C3CC[C@H](C(C)CCC(N)=O)[C@]31C)[C@H](OC(C)=O)C[C@@H]1CC3(CC[C@]21C)OOC1(CCC(c2ccccc2)CC1)OO3 (single isomer, unassigned) [Compound 1C45, 7α,12α-Diacetoxy-5β-cholan-24-amide-3-spiro-6′-(1′,2′,4′,5′-tetraoxacyclohexane)-3′-spiro-1″-((4″R or S)-phenyl)cyclohexane]	2700 nM	8.07 µM	4.66 µM	360 nM	4.57 µM	1.35 µM	7.36 ng/mL	93%	93%	290 nM	100 µM	20 nM	37.3 µM	3.99 µM	295 nM	1.11 µM	1190 nM	7.15 µM	2.92 µM	6.25 µg/mL (≈ 8.98 µM)	GI50 ([5]; Malme-3M): 20 nM; Resistance Index [8]: 1.02; MIC (M. tuberculosis H37Rv; [16]): 6.25 µg/mL (≈ 8.98 µM); Strain D6 IC50 [11]: 7.19 ng/mL
CNC(=O)CCC(C)[C@H]1CCC2C3C(C[C@H](OC(C)=O)[C@@]21C)[C@@]1(C)CCC2(C[C@H]1C[C@H]3OC(C)=O)OOC1(CCC(C)CC1)OO2 (stereo partly drawn) [18/1C27, N-Methyl-7α,12α-diacetoxy-5β-cholan-24-amide-3-spiro-6′-(1′,2′,4′,5′-tetraoxacyclohexane)-3′-spiro-1″-((4″R)-methyl)cyclohexane]	–	–	–	–	–	–	2.34 ng/mL	98%	98%	–	–	–	–	–	–	–	–	–	–	6.25 µg/mL and 9.65 µM	IC50 (in vitro; Table 3, VERO cell line, 72 hours exposure): 5.69 µg/mL and 8.78 µM; Resistance Index [8]: 0.61; SI (selectivity index) (VERO cells [10]; [15]): 0.91; MIC (M. tuberculosis H37Rv; [16]): 6.25 µg/mL (≈ 9.65 µM); Strain D6 IC50 [11]: 3.86 ng/mL
C[C@@H]1CC[C@H]2[C@@H](C)C(=O)O[C@@H]3O[C@@]4(C)CC[C@@H]1[C@]32OO4 [Artemisinin, reference compound]	100000 nM	100 µM	100 µM	79400 nM	100 µM	100 µM	–	–	–	100000 nM	100 µM	100000 nM	100 µM	100 µM	79400 nM	100 µM	100000 nM	100 µM	100 µM	–	TGI (SR leukemia cell line): 100 µM
CC(=O)O[C@H]1C(=O)[C@@]2(C)[C@H]([C@H](OC(=O)c3ccccc3)[C@]3(O)C[C@H](OC(=O)[C@H](O)[C@@H](NC(=O)c4ccccc4)c4ccccc4)C(C)=C1C3(C)C)[C@]1(OC(C)=O)CO[C@@H]1C[C@@H]2O [Paclitaxel, reference compound]	250 nM	79.4 µM	50.1 µM	1580 nM	100 µM	39.8 µM	–	–	–	79 nM	63.1 µM	2510 nM	79.4 µM	50.1 µM	32 nM	79.4 µM	7.9 nM	100 µM	79.4 µM	–	TGI (SR leukemia cell line): 63.1 µM
CO[C@H]1/C=C/O[C@@]2(C)Oc3c(C)c(O)c4c(O)c(c(/C=N/N5CCN(C)CC5)c(O)c4c3C2=O)NC(=O)/C(C)=C\C=C\[C@H](C)[C@H](O)[C@@H](C)[C@@H](O)[C@@H](C)[C@H](OC(C)=O)[C@@H]1C [Rifampin, reference compound]	–	–	–	–	–	–	–	–	–	–	–	–	–	–	–	–	–	–	–	0.12 µg/mL and 0.15 µM	IC50 (in vitro): 111 µg/mL and 134 µM; IC50 (VERO cells [6]): > 100 µg/mL; SI (selectivity index) (VERO cells [10]): > 800
